Experimental data published in US4259332A, “Novel taurine derivatives” (priority 1979, dated 1981).
Where two headings read alike, the source gives them in different places.

Key:
[1] = assay type: in vivo, rat; conditions: fasted rats, oral, 225 mg/Kg acetylsalicylic acid
Method: Rats which had not been fed for 24 hours were used. The AST product was administered orally as the acid or the sodium salt at a dosage of 335 mg/Kg suspended in 1% carboxymethylcellulose. […] Both the methods of treatment and the observation time were identical for the 3 groups of animals.

[2] = Analgesic activity: convulsions produced by phenylquinone; assay type: in vivo, mouse; conditions: oral, ASA 200, AST 300 mg/Kg
Method: (A) Test of convulsions produced by phenylquinone injected into mice by the intraperitoneal route. The AST product was administered orally both in the acid form (AST Ac). and as the sodium salt (AST Na). It was compared with a molar equivalent dosage of acetylsalicylic acid and with a carboxymethylcellulose placebo. The convulsions were induced at varying intervals from the oral treatment counting from the first 20 minutes after the injection of phenylquinone.

[3] = Analgesic activity: mechanical pressure test on inflamed rat's paw; assay type: in vivo; conditions: oral, ASA 200, AST 300 mg/Kg
Method: (B) Mechanical pressure test on inflamed rat's paw. The AST product was administered both in the acid and sodium salt form by the oral method. It was compared with a molar equivalent dosage of acetylsalicylic acid and with a carboxymethylcellulose placebo. The inflammation of the paw was induced by a local injection of yeast simultaneously with the oral treatment with the drugs and the tenderness was measured in grams of mechanical pressure required to cause a reaction in the animal.

[4] = Edema resulting from yeast in the paw of the rat; assay type: in vivo; conditions: oral, ASA 200, AST 300 mg/Kg
Method: (A) Edema resulting from yeast in the paw of the rat. The AST product was administered orally both in the acid and sodium salt form. It was compared with a molar equivalent dose of acetylsalicylic acid and with carboxymethylcellulose placebo. The edema of the paw was induced with a local injection of the yeast simultaneously with the oral treatment with the drugs, and the volume of the paw was measured in hundredths of milliliter.

[5] = Edema as a result of nystatin in the rat's paw; assay type: in vivo; conditions: p.o.
Method: (B) Edema as a result of nystatin in the rat's paw. The long duration of this type of edema enabled the animals to be repeatedly treated in order to ascertain the presence if any of the protracted effect of the AST product also using parenteral administration. The comparison was carried out using a molar equivalent dose of acetylsalicylic acid administrated orally and with the carboxymethylcellulose placebo also only administered orally. The AST product was used in the acid form orally and in the salt form using intraperitoneal administration.
The dosages of the drugs, always proportional to one another, were varied from day to day, i.e.: the first day a dosage of 200 mg/Kg of ASA and 300 mg/Kg of AST; the second day a double dose of each; the third day a double dose of each divided into two equal components administered with a spacing of 9 hours (10 am and 7 pm respectively); the fourth day no treatment in order to check the length of the effect after the fourth administration.
The […] was injected into the paw on the night before the first treatment with the drugs and the volume of the paw was measured in hundredths of milliliter.

[6] = Antipyretic activity: pyrexia from subcutaneous yeast in the rat; assay type: in vivo; conditions: p.o., ASA 200, AST 300 mg/Kg
Method: Pyrexia from subcutaneous yeast in the rat. The AST product was administered orally in the acid from and the salt form with sodium, and by the intraperitoneal method in the salt form. It was compared with a molar equivalent dose of acetylsalicylic acid administered orally and with a carboxymethylcellulose placebo. The pyrexia was induced with a subcutaneous injection of yeast on the evening prior to the drug treatment, i.e. 16 hours before.

[7] = mouse, literature, cited from earlier work
[8] = Toxicology, oral treatment of mice for 180 days, Compound B; assay type: in vivo, mouse; conditions: 200 mg/kg orally
[9] = Protection against hepatic intoxication by CCl4 and cold, Compound B (BSF in blood); assay type: in vivo; conditions: 500 mg/kg endoperitoneal
Method: Oral administration of 5 ml/kg of a 20% solution of CCl4 in oil, with simultaneous endoperitoneal administration of 500 mg/kg of Compound B, was followed by exposure for 5 hours at 4° C. BSF in the blood (30 mg/kg i.v.) was tested. A comparison product, homocysteinethiolactone (OCT) was employed.
10 Animals were treated per group, and the results expressed as percentage change with respect to the controls were as shown in Table 4.

[10] = BSF bile excretion after CCl4; assay type: in vivo, rat; conditions: 100 mg/kg endoperitoneal 4 days, CCl4 10% 10 ml/kg
Method: Endoperitoneal administration to rats of 100 mg/kg of Compound B for 4 days was followed on the fourth day, one hour after the last administration, with the rats receiving 10 ml/kg orally of a 10% solution of CCl4 in oil. BSF (5 mg/kg) in the bile was tested.

[11] = Curative effect on intoxication by CCl4; assay type: in vivo, rat; conditions: 100 mg/kg endoperitoneal 1 h after CCl4; BSF tested after 4 hours
Method: Oral administration to rats of 10 ml/kg of a 10% solution of CCl4 in oil was followed with endoperitoneal administration of 100 mg/kg of Compound B after 1 hour. BSF (50 mg/kg i.v.) in the blood was tested after 4 hours. 5 Animals were used per group, and expressed as percentage change with respect to the control, the Compound B gave a reduction of -34.2.

[12] = Intoxication by CCl4 and curative treatment; assay type: in vivo; conditions: 100 mg/kg endoperitoneal on days 1, 2 and 3
Method: On the first day there was oral administration of 10 ml/kg of a 10% solution of CCl4 in oil and simultaneous endoperitoneal administration of 100 mg/kg of Compound B. On the second and third days, there was endoperitoneal administration of 100 mg/kg of Compound B, then testing of BSF (50 mg/kg i.v.) in the blood.
5 Animals were used per group, and expressed as pecentage variation with respect to the control, there was a reduction by Compound B of 16.1.

[13] = Antilipemic action, Morris, Handler or Nath diet, Compound B; assay type: in vivo, Wistar rat; conditions: for Bile BSF, percentage change vs control / Liver total lipids, percentage change vs control / Serum total cholesterol, percentage change vs control / Serum total lipids, percentage change vs control / Liver fresh organic weight, percentage change vs control / Serum beta-lipoproteins, percentage change vs control: 45 days, 200 mg/kg orally
Method: Wistar rats were treated for 45 days with a Morris diet, a Handler diet or a Nath diet. Simultaneously with the diet they received each day 200 mg/kg of Compound B or choline (except for the Nath diet) orally.

CC(=O)Oc1ccccc1C(=O)O [ASA, acetylsalicylic acid, reference compound]
Haemorrhagic gastric ulcers [1]: 5 to 10 | Inhibition % of convulsions in respect of treatment with placebo ([2]; 1h): 23% | Inhibition % of convulsions in respect of treatment with placebo ([2]; 2h): 37% | Inhibition % of convulsions in respect of treatment with placebo ([2]; 4h): 17% | % Inhibition of the hyperalgesia in respect of treatment with placebo ([3]; 1h): 27% | % Inhibition of the hyperalgesia in respect of treatment with placebo ([3]; 5h): 0% | Inhibition of the edema with respect to treatment with placebo ([4]; 1h): 41 | Inhibition of the edema with respect to treatment with placebo ([4]; 3h): 51 | Inhibition of the edema with respect to treatment with placebo ([4]; 5h): 55 | % Inhibition of the edema in respect of treatment with placebo ([5]; 1st day, 2h after 1st dose, ASA 200, AST Ac 300 mg/Kg): 8% | % Inhibition of the edema in respect of treatment with placebo ([5]; 1st day, 4h after 1st dose, ASA 200, AST Ac 300 mg/Kg): 10% | % Inhibition of the edema in respect of treatment with placebo ([5]; 1st day, 8h after 1st dose, ASA 200, AST Ac 300 mg/Kg): 7% | % Inhibition of the edema in respect of treatment with placebo ([5]; 2nd day, 2h after 2nd dose, ASA 400, AST Ac 600 mg/Kg): 10% | % Inhibition of the edema in respect of treatment with placebo ([5]; 2nd day, 4h after 2nd dose, ASA 400, AST Ac 600 mg/Kg): 11% | % Inhibition of the edema in respect of treatment with placebo ([5]; 2nd day, 8h after 2nd dose, ASA 400, AST Ac 600 mg/Kg): 15% | % Inhibition of the edema in respect of treatment with placebo ([5]; 3rd day, 2h after 3rd dose, ASA 200, AST Ac 300 mg/Kg): 8% | % Inhibition of the edema in respect of treatment with placebo ([5]; 3rd day, 4h after 3rd dose, ASA 200, AST Ac 300 mg/Kg): 11% | % Inhibition of the edema in respect of treatment with placebo ([5]; 3rd day, 8h after 3rd dose, ASA 200, AST Ac 300 mg/Kg): 14% | % Inhibition of the edema in respect of treatment with placebo ([5]; 4th day, 13h after 4th dose, ASA 200, AST Ac 300 mg/Kg): 9% | % Inhibition of the edema in respect of treatment with placebo ([5]; 4th day, 17h after 4th dose, ASA 200, AST Ac 300 mg/Kg): 12% | % Inhibition of the edema in respect of treatment with placebo ([5]; 4th day, 23h after 4th dose, ASA 200, AST Ac 300 mg/Kg): 8% | % Inhibition of the pyrexia in respect of treatment with placebo ([6]; 1h): 78% | % Inhibition of the pyrexia in respect of treatment with placebo ([6]; 2h): 103% | % Inhibition of the pyrexia in respect of treatment with placebo ([6]; 4h): 114% | % Inhibition of the pyrexia in respect of treatment with placebo ([6]; 6h): 58% | % Inhibition of the pyrexia in respect of treatment with placebo ([6]; 8h): 45% | LD50 ([7]; intraperitoneal): 420 mg/kg | LD50 ([7]; oral): 1,050 mg/kg

COc1cc(C(=O)OCCN(CCOC(=O)c2cc(OC)c(OC)c(OC)c2)CCS(=O)(=O)O)cc(OC)c1OC [Compound B, N,N-di-[2-(3,4,5-trimethoxybenzoyloxy)ethyl]taurine]
Mortality [8]: No mortality occurred | Hepatic intoxication protection, percentage change of BSF in blood vs controls ([9]; test number 1): -27.5% | Hepatic intoxication protection, percentage change of BSF in blood vs controls ([9]; test number 2): -17.0% | BSF bile excretion, percentage of excretion ([10]; 30 min.): 44.1% | BSF bile excretion, percentage of excretion ([10]; 60 min.): 50.9% | BSF in the blood, percentage change vs control (reduction) [11]: -34.2% | BSF in the blood, percentage variation vs control (reduction) [12]: 16.1% | Bile BSF, percentage change vs control ([13]; Handler diet, B and Choline): +23.4% | Liver total lipids, percentage change vs control ([13]; Handler diet, B and Choline): -29.1% | Serum total cholesterol, percentage change vs control ([13]; Handler diet, B and Choline): -7.3% | Serum total lipids, percentage change vs control ([13]; Handler diet, B and Choline): +9.1% | Liver fresh organic weight, percentage change vs control ([13]; Handler diet, second B column): -13.3% | Liver fresh organic weight, percentage change vs control ([13]; Handler diet): -24.9% | Liver total lipids, percentage change vs control ([13]; Handler diet): -37.7% | Serum total cholesterol, percentage change vs control ([13]; Handler diet): -6.3% | Serum total lipids, percentage change vs control ([13]; Handler diet): -15.9% | Bile BSF, percentage change vs control ([13]; Morris diet): +23.8% | Liver total lipids, percentage change vs control ([13]; Morris diet): -11.5% | Serum beta-lipoproteins, percentage change vs control ([13]; Morris diet): -23.7% | Serum total cholesterol, percentage change vs control ([13]; Morris diet): -23.2% | Serum total lipids, percentage change vs control ([13]; Morris diet): -22.4% | Liver total lipids, percentage change vs control ([13]; Nath diet): -23.4% | Serum beta-lipoproteins, percentage change vs control ([13]; Nath diet): -29.7% | Serum total cholesterol, percentage change vs control ([13]; Nath diet): -35.2% | Serum total lipids, percentage change vs control ([13]; Nath diet): -20.6% | Oral absorption (deduced from diet tests) ([13]; oral, powder with the diet): good oral absorption
